Laboratory results taken from ChEMBL document CHEMBL3045737, “Evaluation of toxicity and genotoxic effects of spinosad and deltamethrin in Drosophila melanogaster and Bactrocera oleae” (Pest Manag Sci, 2011).
≈ marks a conversion by molar mass, not a printed value.

Tests used:
Bactrocera oleae [1] = experiment: Insecticidal activity against Bactrocera oleae adults assessed as death treated upto 120 hr at 24 +/- 1 degC, 60%RH; format: functional; conditions: for LC50: Bactrocera oleae, 120 h
Drosophila melanogaster [2] = experiment: Insecticidal activity against Drosophila melanogaster larvae assessed as death at 24 +/- 1 degC, 60%RH; format: functional; conditions: for LC50: Drosophila melanogaster
Drosophila melanogaster [3] = experiment: Insecticidal activity against Drosophila melanogaster adults assessed as death treated upto 120 hr at 24 +/- 1 degC, 60%RH; format: functional; conditions: for LC50: Drosophila melanogaster, 120 h
Bactrocera oleae [4] = experiment: Insecticidal activity against Bactrocera oleae adults assessed as death treated upto 192 hr at 24 +/- 1 degC, 60%RH; format: functional; conditions: for LC50: Bactrocera oleae, 192 h
Bactrocera oleae [5] = experiment: Insecticidal activity against Bactrocera oleae adults assessed as death treated upto 24 hr at 24 +/- 1 degC, 60%RH; format: functional; conditions: for LC50: Bactrocera oleae, 24 h
Drosophila melanogaster [6] = experiment: Insecticidal activity against Drosophila melanogaster adults assessed as death treated upto 24 hr at 24 +/- 1 degC, 60%RH; format: functional; conditions: for LC50: Drosophila melanogaster, 24 h
Drosophila melanogaster [7] = experiment: Genotoxicity in Drosophila melanogaster larvae at 0.10 to 0.30 mg/l; format: organism-based; conditions: in vivo
Bactrocera oleae [8] = experiment: Insecticidal activity against Bactrocera oleae adults assessed as death treated upto 72 hr at 24 +/- 1 degC, 60%RH; format: functional; conditions: for LC50: Bactrocera oleae, 72 h
Drosophila melanogaster [9] = experiment: Insecticidal activity against Drosophila melanogaster adults assessed as death treated upto 72 hr at 24 +/- 1 degC, 60%RH; format: functional; conditions: for LC50: Drosophila melanogaster, 72 h
Drosophila melanogaster [10] = experiment: Insecticidal activity against Drosophila melanogaster adults assessed as death treated upto 192 hr at 24 +/- 1 degC, 60%RH; format: functional; conditions: for LC50: Drosophila melanogaster, 192 h
Drosophila melanogaster [11] = experiment: Genotoxicity in Drosophila melanogaster larvae at 7.50 to 10 mg/l; format: organism-based; conditions: in vivo
Drosophila melanogaster [12] = experiment: Genotoxicity in Drosophila melanogaster larvae at 10^-3 M; format: organism-based; conditions: in vivo, 1000 µM

| Compound | LC90 (Bactrocera oleae [1]) [µg/mL] | LC50 (Bactrocera oleae [1]) [µg/mL] | LC90 (Drosophila melanogaster [2]) [µg/mL] | LC50 (Drosophila melanogaster [2]) [µg/mL] | LC90 (Drosophila melanogaster [3]) [µg/mL] | LC50 (Drosophila melanogaster [3]) [µg/mL] | LC90 (Bactrocera oleae [4]) [µg/mL] | LC50 (Bactrocera oleae [4]) [µg/mL] | LC90 (Bactrocera oleae [5]) [µg/mL] | LC50 (Bactrocera oleae [5]) [µg/mL] | LC90 (Drosophila melanogaster [6]) [µg/mL] | LC50 (Drosophila melanogaster [6]) [µg/mL] | LC90 (Bactrocera oleae [8]) [µg/mL] | LC50 (Bactrocera oleae [8]) [µg/mL] | LC90 (Drosophila melanogaster [9]) [µg/mL] | LC50 (Drosophila melanogaster [9]) [µg/mL] | LC90 (Drosophila melanogaster [10]) [µg/mL] | LC50 (Drosophila melanogaster [10]) [µg/mL] | other results |
| --- | --- | --- | --- | --- | --- | --- | --- | --- | --- | --- | --- | --- | --- | --- | --- | --- | --- | --- | --- |
| CC[C@H]1CCC[C@H](O[C@H]2CC[C@H](N(C)C)[C@@H](C)O2)[C@@H](C)C(=O)C2=C[C@@H]3[C@@H](C=C(C)[C@@H]4C[C@@H](O[C@@H]5O[C@@H](C)[C@H](OC)[C@@H](OC)[C@H]5OC)C[C@@H]34)[C@@H]2CC(=O)O1.CC[C@H]1CCC[C@H](O[C@H]2CC[C@H](N(C)C)[C@@H](C)O2)[C@@H](C)C(=O)C2=C[C@@H]3[C@@H](C=C[C@@H]4C[C@@H](O[C@@H]5O[C@@H](C)[C@H](OC)[C@@H](OC)[C@H]5OC)C[C@@H]34)[C@@H]2CC(=O)O1 | 0.422 | 0.191 | 0.308 | 0.13 | 1.074 | 0.75 | 0.345 | 0.111 | 7.277 | 4.06 | 5.604 | 3.8 | 0.598 | 0.341 | 1.998 | 1.26 | 0.367 | 0.262 | Activity (Drosophila melanogaster [7]): Non-toxic |
| CC1(C)[C@H](C(=O)O[C@H](C#N)c2cccc(Oc3ccccc3)c2)[C@@H]1C=C(Br)Br [DELTAMETHRIN] | 0.161 (≈ 0.319 µM) | 0.176 (≈ 0.348 µM) | 17.41 (≈ 34.5 µM) | 4.96 (≈ 9.81 µM) | 13.599 (≈ 26.9 µM) | 7.24 (≈ 14.3 µM) | 0.398 (≈ 0.788 µM) | 0.414 (≈ 0.819 µM) | 6.033 (≈ 11.9 µM) | 2.85 (≈ 5.64 µM) | 31.682 (≈ 62.7 µM) | 17.1 (≈ 33.8 µM) | 1.002 (≈ 1.98 µM) | 0.344 (≈ 0.681 µM) | 14.591 (≈ 28.9 µM) | 8.03 (≈ 15.9 µM) | 10.352 (≈ 20.5 µM) | 4.82 (≈ 9.53 µM) | Activity (Drosophila melanogaster [11]): Non-toxic |
| CCOS(C)(=O)=O [METHANESULFONIC ACID ETHYL ESTER] | – | – | – | – | – | – | – | – | – | – | – | – | – | – | – | – | – | – | Activity (Drosophila melanogaster [12]): Toxic |
